{"source": "paper PMC8156604", "about": "“Development of Phosphodiesterase–Protein-Kinase Complexes as Novel Targets for Discovery of Inhibitors with Enhanced Specificity” (International Journal of Molecular Sciences, 2021)", "key": {"[1]": {"target": "T1, RegA–RD complex (Dictyostelium discoideum, UniProt P05987+Q23917)", "T1 construct": "gene pkaR", "T1 sequence (P05987 1-327)": "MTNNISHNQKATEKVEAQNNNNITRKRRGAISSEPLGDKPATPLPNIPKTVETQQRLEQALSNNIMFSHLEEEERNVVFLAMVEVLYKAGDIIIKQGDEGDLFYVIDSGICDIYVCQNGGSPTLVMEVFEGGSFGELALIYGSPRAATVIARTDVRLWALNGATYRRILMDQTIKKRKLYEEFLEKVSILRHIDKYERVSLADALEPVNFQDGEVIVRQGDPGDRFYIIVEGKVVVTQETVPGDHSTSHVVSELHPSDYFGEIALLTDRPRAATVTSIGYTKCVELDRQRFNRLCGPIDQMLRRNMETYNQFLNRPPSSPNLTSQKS", "T1 sequence (Q23917 1-793)": "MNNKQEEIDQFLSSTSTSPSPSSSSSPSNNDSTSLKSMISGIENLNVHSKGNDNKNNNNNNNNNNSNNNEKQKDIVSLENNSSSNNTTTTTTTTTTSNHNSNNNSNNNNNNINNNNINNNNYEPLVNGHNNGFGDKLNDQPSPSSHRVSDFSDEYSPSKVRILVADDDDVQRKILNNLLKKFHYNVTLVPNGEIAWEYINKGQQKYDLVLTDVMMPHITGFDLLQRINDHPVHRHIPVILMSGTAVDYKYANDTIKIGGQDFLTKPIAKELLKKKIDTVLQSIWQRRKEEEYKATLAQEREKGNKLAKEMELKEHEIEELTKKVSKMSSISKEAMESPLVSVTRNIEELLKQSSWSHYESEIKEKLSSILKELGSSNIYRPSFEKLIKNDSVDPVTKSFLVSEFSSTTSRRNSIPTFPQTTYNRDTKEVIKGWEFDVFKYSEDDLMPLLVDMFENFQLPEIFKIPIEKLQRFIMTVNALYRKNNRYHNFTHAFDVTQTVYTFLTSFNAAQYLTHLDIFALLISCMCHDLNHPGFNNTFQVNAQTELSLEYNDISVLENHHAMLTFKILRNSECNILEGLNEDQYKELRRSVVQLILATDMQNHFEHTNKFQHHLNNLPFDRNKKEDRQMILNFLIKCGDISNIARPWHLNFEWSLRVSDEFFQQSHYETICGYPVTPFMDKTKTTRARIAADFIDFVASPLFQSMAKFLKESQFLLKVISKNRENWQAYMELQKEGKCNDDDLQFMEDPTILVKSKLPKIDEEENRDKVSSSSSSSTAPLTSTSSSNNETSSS", "settings": "cGMP 250 µM added to preformed 2fc-RD–RegA complex"}, "[2]": {"target": "T2, PDE5–PKG complex (Homo sapiens, UniProt O76074)", "T2 construct": "gene PDE5A", "settings": "PDE5 with cGMP 100 µM, added to 2fg-PKG"}}}
{"smiles": "Nc1nc2c(ncn2[C@@H]2O[C@@H]3COP(=O)(O)O[C@H]3[C@H]2O)c(=O)[nH]1", "note": "[cGMP]", "values": [{"measurement": "fluorescence polarization, displacement of 2fluo-cAMP", "setting": "[1]", "result": "addition of cGMP (lilac plot) resulted in only a partial decrease in FP"}, {"measurement": "fluorescence polarization, 2fluo-cGMP-bound PKG probe", "setting": "[2]", "result": "suggestive of processive hydrolysis of cGMP by PDE5–PKG composite site"}]}
